“Also recorded” adds a separate entry of the source. Structures can show the parent of a compound that is named as a salt.
Columns and labels:
[1] = tested on: endogenous AR-regulated gene expression, LNCaP cells; experiment: qRT-PCR of androgen-responsive genes in LNCaP cells; assay type: cell-based, human; conditions: No DHT = 1, 3 nM DHT alone or with 1 uM BIC, 100 nM PP or 100 nM HH
Experimental: (§1) LAPC4 and LNCaP cells were grown in the presence or absence of 3 nM DHT in charcoal-stripped media, with or without the inhibitors. RNA was harvested using an RNAeasy kit (Qiagen) and reverse transcribed (MMLV-RT, Invitrogen). Real-time PCR was carried out on a 7300 Real Time PCR System (Applied Biosystems) using SYBR green as the detecting dye and Rox as the reference dye. The androgen responsive genes kalikrein 3, or PSA (KLK3) [Cleutjens, K. B., et al., Two androgen response regions cooperate in steroid hormone regulated activity of the prostate-specific antigen promoter. J Biol Chem, 1996. 271(11): p. 6379-88; Nelson, P. S., et al., The program of androgen-responsive genes in neoplastic prostate epithelium. Proc Natl Acad Sci USA, 2002. 99(18): p. 11890-5), metalloproteinase 16 (MMP16) (Nelson, P. S., et al., The program of androgen-responsive genes in neoplastic prostate epithelium. Proc Natl Acad Sci USA, 2002. 99(18): p. 11890-5), transmembrane protease serine 2 (TMPRSS2) (Nelson, P. S., et al., The program of androgen-responsive genes in neoplastic prostate epithelium. Proc Natl Acad Sci USA, 2002. 99(18): p. 11890-5; […] Vaarala, M. H., et al., Expression of transmembrane serine protease TMPRSS2 in mouse and human tissues. J Pathol, 2001. 193(1): p. 134-40), FK506-binding immunophilin 51 (FKBP51) (Nelson, P. S., et al., The program of androgen-responsive genes in neoplastic prostate epithelium. Proc Natl Acad Sci USA, 2002. 99(18): p. 11890-5; Amler, L. C., et al., Dysregulated expression of androgen-responsive and nonresponsive genes in the androgen-independent prostate cancer xenograft model CWR22-R1. Cancer Res, 2000. 60(21): p. 6134-41; Velasco, A. M., et al., Identification and validation of novel androgen-regulated genes in prostate cancer. Endocrinology, 2004. 145(8): p. 3913-24; Magee, J. A., et al., Direct, androgen receptor-mediated regulation of the FKBP5 gene via a distal enhancer element. Endocrinology, 2006. 147(1): p. 590-8), G-protein coupled receptor RDC1 homolog, or chemokine orphan receptor 1 (RDC-1) (Nelson, P. S., et al., The program of androgen-responsive genes in neoplastic prostate epithelium. Proc Natl Acad Sci USA, 2002. 99(18): p. 11890-5), NK homeobox family member 3 (Nk×3.1) (Nelson, P. S., et al., The program of androgen-responsive genes in neoplastic prostate epithelium. Proc Natl Acad Sci USA, 2002. 99(18): p. 11890-5; Bieberich, C. J., et al., Prostate-specific and androgen-dependent expression of a novel homeobox gene. J Biol Chem, 1996. 271(50): p. 31779-82; […]) were all normalized to the transcription of the housekeeping ribosomal gene (RPL19). All samples were done in triplicate and separately normalized.

[2] = tested on: endogenous AR-regulated gene expression, LAPC4 cells; experiment: qRT-PCR of androgen-responsive genes in LAPC4 cells; assay type: cell-based, human; conditions: No DHT = 1, 3 nM DHT alone or with 1 uM BIC, 100 nM PP or 100 nM HH
Experimental: as §1

LNCaP cells = experiment: Cell proliferation (DNA content, DAPI), LNCaP; assay type: cell-based, human; conditions: 3 nM DHT, seven days, PP 100 nM, HH 100 nM, BiC 1 μM, hydrochloride
Source text: (§2) LN-AR cells were created by retroviral infection of a high-expressing AR vector into LNCaP cells, and proliferate independent of androgen in cell culture, unlike their parental line (Chen, C. D., et al., Molecular determinants of resistance to antiandrogen therapy. Nat Med, 2004. 10(1): p. 33-9). HEK293 cells were used as a control. Cells were transferred to charcoal-stripped media two days before they were split and plated in quadruplicate at a density of approximately 20,000 cells/well in 48-well plates. […] Media were changed every day, using a single preparation to ensure consistent compound concentrations. Proliferation was determined by measuring the DNA content of the cells in each well. Each day, the cells in four wells were fixed in 100% cold methanol, followed by staining for 5 min at RT with 0.2 ng/mL 4′,6-diamidino-2-phenylindole (DAPI) in PBS. The cells were washed once in PBS, then read on a fluorescence plate reader using 365/439 excitation/emission wavelengths. LAPC4 and LNCaP cells proliferated to a much greater degree in the presence of DHT, while LN-AR cells proliferated in the presence and absence of DHT.

HEK293 cells = experiment: Cell proliferation (DNA content, DAPI), HEK293 control; assay type: cell-based; conditions: HEK293, seven days; PP 100 nM, HH 100 nM, BiC 1 μM
Source text: as §2

Cc1nccc2c1[nH]c1cc(O)ccc12 [HH, harmol hydrochloride]
FKBP51 transcription (normalized to RPL19) [1]: 1.90 | KLK3 transcription (normalized to RPL19) [1]: 1.46 | MMP16 transcription (normalized to RPL19), androgen-repressed gene [1]: 1.02 | Nkx3.1 transcription (normalized to RPL19) [1]: 1.28 | RDC1 transcription (normalized to RPL19), androgen-repressed gene [1]: 1.22 | TMPRSS2 transcription (normalized to RPL19) [1]: 1.22 | FKBP51 transcription (normalized to RPL19) [2]: 11.96 | KLK3 transcription (normalized to RPL19) [2]: 1.64 | MMP16 transcription (normalized to RPL19), androgen-repressed gene [2]: 4.74 | Nkx3.1 transcription (normalized to RPL19) [2]: 1.55 | RDC1 transcription (normalized to RPL19), androgen-repressed gene [2]: 2.88 | TMPRSS2 transcription (normalized to RPL19) [2]: 1.86 | Inhibition of cell growth (LNCaP cells): inhibited significantly; also recorded: exhibited growth-inhibitory properties | Non-specific growth inhibition of control cells (HEK293 cells): Neither compound exhibited non-specific growth inhibition
